# Test results reported in patent US5859032A, “Pyridine derivative, anti-ulcer drug, and antibacterial drug” (priority 1996, dated 1999).
# System: gastric acid secretion (pylorus-ligated, histamine-stimulated rats)
# Test: VOL, TAO: Acid Secretion Inhibition Test In Vivo
# Set-up: species or system rat (male Crj:Donryu)
# Conditions: rat, 100 mg/kg, oral; histamine 30 mg/kg s.c.
# Description: VOL, TAO: Acid Secretion Inhibition Test In Vivo
# Inhibitory effect on acid secretion in vivo is confirmed.
# Male Crj:Donryu rats (7-week-old) were fasted overnight but allowed free access to water. In each group, 8 to 10 of these rats were used under urethane anesthesia (1.25 g/kg). […] 30 minutes later, the abdomen of each was incised and the pylorus was ligated. 30 minutes after the ligation, 30 mg/kg of histamine dissolved in physiological saline was subcutaneously administered and, 3 hours thereafter, the rat was sacrificed with carbon dioxide. Immediately thereafter, each stomach was removed and the gastric contents were collected and each volume was determined. The total acid output was determined by titration of the gastric juice with 0.1N NaOH.
# With respect to the gastric juice volume (VOL) and the total acid output (TAO), the effects obtained when 100 mg/kg of the sample compound had been administered were expressed as their respective inhibitory rates (%) as follows:
# each inhibitory rate (%)=(1-(value in sample group/value in control
SMILES,TAO: total acid output inhibitory rate [%],VOL: gastric juice volume inhibitory rate [%]
"CC(C)=CCC/C(C)=C/COc1ccc(C(=O)NCCc2ccncc2)cc1 [Example 2, 4-[2-(4-geranyloxybenzoylamino)ethyl]pyridine]",25,17
"CC(C)=CCC/C(C)=C/COc1ccc(C(=O)NCCc2ccccn2)cc1 [Example 1, 2-[2-(4-geranyloxybenzoylamino)ethyl]pyridine]",8,4
"COc1ccc(NCCNC(=O)c2ccc(OC/C=C(\C)CCC=C(C)C)cc2)nc1 [Example 8, 2-[2-(4-geranyloxybenzoylamino)ethylamino]-5-methoxypyridine]",-7,7
